Data: article PMC9579956 (RSC Medicinal Chemistry, 2022)

molecular target: Mycobacterium thermoresistible (Mtr) LpqY (Mycolicibacterium thermoresistibile, UniProt G7CES0); assay type: binding; details: single dose MST screen against LpqY
Sequence (G7CES0 29-471): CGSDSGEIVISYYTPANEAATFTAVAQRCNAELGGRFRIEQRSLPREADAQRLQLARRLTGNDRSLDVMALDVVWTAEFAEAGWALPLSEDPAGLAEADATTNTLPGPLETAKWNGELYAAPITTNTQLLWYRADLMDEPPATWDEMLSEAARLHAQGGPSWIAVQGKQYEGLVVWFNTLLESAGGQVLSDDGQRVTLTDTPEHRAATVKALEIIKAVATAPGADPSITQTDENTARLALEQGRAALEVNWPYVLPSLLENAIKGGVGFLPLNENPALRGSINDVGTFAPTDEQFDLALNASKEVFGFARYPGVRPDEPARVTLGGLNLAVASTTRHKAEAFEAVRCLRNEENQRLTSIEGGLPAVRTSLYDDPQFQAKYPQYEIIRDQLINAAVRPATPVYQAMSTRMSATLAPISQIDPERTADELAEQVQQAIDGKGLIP

Going from `CN(C(=O)c1cc2c(-c3cncnc3)cccc2[nH]1)c1ccccc1` [MMV024443] to `CC(C(=O)Nc1ccc2oc(-c3ccncc3)nc2c1)c1ccccc1` (stereo not shown) [MMV688471], the “Pathogen Box screen signal/noise ratio” value rises from -0.0357 to 1.6.

Going from `CC(C)(C)OC(=O)N1CCN(c2cc(-c3ccc(Oc4ccccc4)cc3)n[nH]2)CC1` [MMV676057] to `c1ccc(Oc2ccc(-c3cc(C4CCOCC4)[nH]n3)cc2)cc1` [MMV687762], the “Pathogen Box screen signal/noise ratio” value falls from 1.2 to 0.6.

Compared with `CCC(C)NC(=O)c1ccc(NC(=O)C2(c3ccccc3)CCCC2)cc1` (stereo not shown) [MMV146306], `COc1ccc(C2(C(=O)Nc3ccc(Br)cc3)CCCC2)cc1` [MMV200748] is higher in “Pathogen Box screen signal/noise ratio” value: -0.653 for the first, 1.4 for the second.

Compared with `Cc1nn(C)cc1C(C)Nc1nncc(-c2ccc(C(F)(F)F)cc2)n1` (stereo not shown) [MMV019993], `O=C(Nc1nnc(-c2ccc(Cl)cc2)o1)c1cccc(C(F)(F)F)c1` [MMV102872] is higher in “Pathogen Box screen signal/noise ratio” value: 0.25 for the first, 0.75 for the second.

Going from `Cc1ccc(S(=O)(=O)N2CCN(C(=O)c3cc(-c4ccccc4)[nH]n3)CC2)cc1` [MMV019742] to `Cc1ccc(S(=O)(=O)Nc2ccc(CN3CCN(C(=O)c4cccc(C#N)c4)CC3)cc2)cc1` [MMV689028], the “Pathogen Box screen signal/noise ratio” value falls from 0.286 to -0.5.

First: CO[C@@H](C(=O)N1Cc2[nH]nc(NC(=O)c3ccc(N4CCN(C)CC4)cc3)c2C1)c1ccccc1 [MMV676600]
Second: O=C(C1CCN(c2nnnn2-c2ccccc2)CC1)N1CCc2ccccc2C1 [MMV009135]
The “Pathogen Box screen signal/noise ratio” value of the first is lower: 0.6 for the first, 1.2 for the second.

Going from `COc1ccc(Oc2ccc([C@@H](C)N(C)c3ncc4c(N)nc(N)nc4n3)cc2)cc1` [MMV690102] to `Nc1nc2ccc(-c3cncc(Oc4ccc(F)cc4)c3)cc2[nH]1` [MMV687248], the “Pathogen Box screen signal/noise ratio” value falls from 2.1 to 0.2.

Going from `NCCN(C(=O)c1ccc(Cl)cc1Cl)c1ccc(OCc2ccc(Cl)cc2)cc1` [MMV688371] to `COc1ccc(N(CCc2cccc(C)n2)C(C)=O)cc1` [MMV675995], the “Pathogen Box screen signal/noise ratio” value falls from 1.7 to 0.318.

Going from `CCOc1ccc2cc(-c3nn(CC4CCN(C)CC4)c4ncnc(N)c34)ccc2c1` [MMV688854] to `CCOc1ccc2cc(-c3nn(C(C)(C)C)c(N)c3C(N)=O)cnc2c1` [MMV688853], the “Pathogen Box screen signal/noise ratio” value rises from 1.2 to 3.8.

Going from `COC(=O)Nc1nc2cc(C(=O)c3ccccc3)ccc2[nH]1` [MMV003152] to `COc1ccc(Nc2ccccc2NC(=O)c2ccc(O)nc2)cc1` [MMV676554], the “Pathogen Box screen signal/noise ratio” value falls from 1.9 to 1.8.

First: Cc1nc2ccccn2c1C(=O)NCc1ccc(Cl)cc1 [MMV012074]
Second: CC1=Nc2ccc(Cl)cc2C(c2ccccc2)N1CCNC(=O)CN(C)C (stereo not shown) [MMV688410]
The “Pathogen Box screen signal/noise ratio” value of the first is higher: 1.0 for the first, 0.5 for the second.

Going from `Brc1c(-c2ccc3c(c2)OCO3)nc2ncccn12` [MMV676377] to `O=C(c1cc2ccccc2o1)N1CCN(Cc2ccc3c(c2)OCO3)CC1` [MMV676520], the “Pathogen Box screen signal/noise ratio” value falls from 2.9 to 1.1.

Going from `Cc1cc(NC(=O)c2ccc(S(=O)(=O)N(Cc3ccccc3)C(C)C)cc2)no1` [MMV007133] to `CC(C)C(C(=O)Nc1ccc(S(=O)(=O)N(C)C)cc1)c1ccc(Cl)cc1` (stereo not shown) [MMV020391], the “Pathogen Box screen signal/noise ratio” value falls from 0.4 to 0.25.

First: O=C(Nc1ccc2c(c1)B(O)OC2)c1ccccc1C(F)(F)F [MMV652003]
Second: O=C(Nc1ccc(N2CCNCC2)nc1)c1oc(-c2ccccc2)nc1C(F)(F)F [MMV024937]
The “Pathogen Box screen signal/noise ratio” value of the first is lower: 0.444 for the first, 2.9 for the second.

Compared with `COc1ccc(Cn2cnc3c(-c4ccco4)nc(Cl)nc32)cc1` [MMV687170], `COc1ccc(-c2cncc3ccc(C(=O)NCCCn4ccnc4)nc23)cc1` [MMV020670] is higher in “Pathogen Box screen signal/noise ratio” value: 1.0 for the first, 2.7 for the second.

Going from `FC(F)(F)c1ccc(N(c2cccnc2)C2CCN(c3ccc(C(F)(F)F)cn3)CC2)cc1` [MMV689243] to `CCOc1ccccc1NC(C)C(=O)Nc1cc(C(F)(F)F)ccc1N1CCOCC1` (stereo not shown) [MMV407834], the “Pathogen Box screen signal/noise ratio” value rises from 1.4 to 2.3.

Compared with `COc1cncc(-c2cncc(N3CCN(c4ccncc4)CC3)n2)c1` [MMV085071], `COc1ccc(-c2cnc3ccc(N4CCCC4)nn23)cc1OC` [MMV023985] is higher in “Pathogen Box screen signal/noise ratio” value: 1.2 for the first, 2.0 for the second.

First: Cc1cnc(N2CCN[C@@H](Cc3ccccc3)C2)nc1Oc1ccc(-n2ccnc2)cc1 [MMV687765]
Second: O=C(Nc1ccc(N2CCNCC2)cc1)c1ccn2ncc(-c3cccc(Cl)c3)c2n1 [MMV022478]
The “Pathogen Box screen signal/noise ratio” value of the first is higher: 2.2 for the first, 2.0 for the second.

Compared with `O=C(c1[nH]nc2c1CCCC2)N1CCN(Cc2ccc3c(c2)OCO3)CC1` [MMV676389], `COc1cc(CN2CCC3(C=Cc4ccccc43)CC2)cc2c1OCO2` [MMV688941] is lower in “Pathogen Box screen signal/noise ratio” value: 1.7 for the first, 0.5 for the second.

Compared with `Nc1c2c(nc3sc4c(c13)CCCC4)CCCC2` [MMV676588], `COc1cccc(NC(=O)c2c(NC(=O)c3cccnc3)sc3c2CCC3)c1` [MMV228911] is higher in “Pathogen Box screen signal/noise ratio” value: 0.449 for the first, 2.2 for the second.

First: c1csc(-c2cnc3sc(NCC4CCOCC4)nn23)c1 [MMV010764]
Second: O=C(CCC1CCCCC1)Nc1cccc(-c2nnc(-c3ccco3)o2)c1 [MMV676589]
The “Pathogen Box screen signal/noise ratio” value of the first is higher: 0.667 for the first, 0.6 for the second.

Going from `CC1CS(=O)(=O)CCN1/N=C/c1ccc([N+](=O)[O-])o1` (stereo not shown) [MMV001499] to `CC1COC2(CCN(c3nc(=O)c4cc(C(F)(F)F)cc([N+](=O)[O-])c4s3)CC2)O1` (stereo not shown) [MMV676603], the “Pathogen Box screen signal/noise ratio” value falls from 2.4 to 1.8.

Going from `O=C(Nc1c(O)cccc1-c1nc2c(C(=O)O)cccc2o1)c1cc(-c2ccccc2)on1` [MMV676008] to `COC(=O)c1cccc2oc(-c3cccc(OC)c3NC(=O)c3cc(-c4ccccc4)on3)nc12` [MMV676186], the “Pathogen Box screen signal/noise ratio” value falls from 1.7 to 0.1.

First: O=S(=O)(c1ccc(Cl)cc1)N1CCN(C(=S)NCc2ccco2)CC1 [MMV000858]
Second: O=C(NCc1ccco1)N1CCN(Cc2ccc(Cl)s2)CC1 [MMV688555]
The “Pathogen Box screen signal/noise ratio” value of the first is higher: 2.2 for the first, 0.218 for the second.

Going from `Cn1ccnc1CNCCS(=O)(=O)c1cccc(Nc2ccc(-c3cccc(F)c3)cn2)c1` [MMV688466] to `Nc1ccc2ncnc(Nc3ccc(OCc4cccc(F)c4)c(Cl)c3)c2c1` [MMV688273], the “Pathogen Box screen signal/noise ratio” value rises from 0.0 to 0.8.

First: CC(C)C(NC(=O)Cc1cccc2ccccc12)C(=O)Nc1cccc(C#N)c1 (stereo not shown) [MMV020591]
Second: CCOc1ccc(-c2nc(NC(=O)CS(=O)(=O)c3ccccc3)sc2C)cc1 [MMV007638]
The “Pathogen Box screen signal/noise ratio” value of the first is lower: 0.25 for the first, 0.254 for the second.

Going from `Cc1cc(C2=NOC(c3cc(Cl)c(F)c(Cl)c3)(C(F)(F)F)C2)ccc1C(=O)NCc1ccc2c(c1)C(C)(C)OB2O` (stereo not shown) [MMV687776] to `COc1cccc(OC)c1C(=O)Nc1ccc(Cl)c(-c2nc3ccccc3s2)c1` [MMV676472], the “Pathogen Box screen signal/noise ratio” value falls from 1.6 to 0.348.

Compared with `COc1ccc(CN2CCOc3ccc(C(C)(O)CN(C)C)cc3C2)cc1C` (stereo not shown) [MMV008439], `CCc1ccc(S(=O)(=O)Nc2cc(CN3CCN(CCC(C)C)CC3)ccc2C)cc1` [MMV688124] is higher in “Pathogen Box screen signal/noise ratio” value: 0.222 for the first, 0.85 for the second.

Going from `CC(C)(C)CN1C(=O)C(c2ccccc2)(c2ccccc2)N=C1N` [MMV026550] to `Cc1nc(-c2cccc(NCc3ccccc3)c2)[nH]c1C` [MMV023227], the “Pathogen Box screen signal/noise ratio” value rises from 0.455 to 1.4.

Compared with `Cc1cc(OCC(=O)Nc2ccc(C(C)C)cc2)n(C)c(=O)c1C#N` [MMV1198433], `Cc1ccc2c(c1C)NC(=O)C21NN=C(c2ccccc2)S1` (stereo not shown) [MMV019189] is higher in “Pathogen Box screen signal/noise ratio” value: 1.0 for the first, 1.4 for the second.

First: CCCCc1ccc(C(=O)Nc2nccc3ccccc23)nc1 [MMV687254]
Second: COc1ccc2nccc(NC(=O)C3CCN(CCc4ccc(Cl)cc4)CC3)c2n1 [MMV688844]
The “Pathogen Box screen signal/noise ratio” value of the first is lower: 0.0729 for the first, 0.7 for the second.

`CC(C)N=c1cc2n(-c3ccc(Cl)cc3)c3ccccc3nc-2cc1Nc1ccc(Cl)cc1` [MMV687800] and `Cc1nnc(NC(=O)c2cn(-c3ccccc3)nc2-c2ccccc2C)o1` [MMV020320] are the same in “Pathogen Box screen signal/noise ratio” value: 0.6 for the first, 0.6 for the second.

Going from `CCOc1ccc(-c2nc(CNCCc3ccc(F)cc3)cs2)cc1` [MMV688938] to `N=C(N)c1ccc(OCCCCCOc2ccc(C(=N)N)cc2)cc1` [MMV000062], the “Pathogen Box screen signal/noise ratio” value rises from -0.25 to 0.3.

Compared with `NC(=O)c1cc(-c2ccsc2)ccc1OCCOc1ccccc1` [MMV687138], `NC(=O)c1cc(Br)ccc1OCCOc1ccccc1` [MMV687243] is lower in “Pathogen Box screen signal/noise ratio” value: 1.8 for the first, 0.4 for the second.

Going from `COc1ccc(C2=NN(C3CCCCCC3)C(=O)[C@@H]3CC=CC[C@H]23)cc1OCCCCOc1ccc(-c2nn[nH]n2)cc1` [MMV690027] to `Cc1nn(Cc2ccccc2)c(Cl)c1C(=O)NC1CCCCCC1` [MMV063404], the “Pathogen Box screen signal/noise ratio” value rises from 0.9 to 2.2.

Going from `Oc1c(I)cc(I)c2cccnc12` [MMV002817] to `NS(=O)(=O)c1cncc(-c2ccc3nccc(-c4cn[nH]c4)c3n2)c1` [MMV024101], the “Pathogen Box screen signal/noise ratio” value rises from 0.152 to 0.429.

Compared with `O=C(C1CCN(c2cc(-n3cccc3)ncn2)CC1)N1CCc2ccccc2C1` [MMV687172], `CC1=Nc2ccc(Cl)cc2C(O)(c2ccc(C)cc2)N1CCN1CCCCC1` (stereo not shown) [MMV688279] is higher in “Pathogen Box screen signal/noise ratio” value: 0.431 for the first, 0.8 for the second.

Going from `CC1(C)Cc2c(c(N3CCOCC3)nc3snc(Br)c23)CO1` [MMV687794] to `COc1cc(C(F)(F)F)nc2ccc(C)c(N)c12` [MMV047015], the “Pathogen Box screen signal/noise ratio” value rises from 0.0714 to 2.0.

Compared with `CC(=O)OC[C@H]1O[C@@H]([S-])[C@H](OC(C)=O)[C@@H](OC(C)=O)[C@@H]1OC(C)=O.CC[PH+](CC)CC.[Au]` [MMV688978], `CO/N=C(\C(=O)OC)c1ccccc1CO/N=C(\C)c1cccc(C(F)(F)F)c1` [MMV688754] is higher in “Pathogen Box screen signal/noise ratio” value: 0.85 for the first, 1.2 for the second.

For `CCS(=O)(=O)N(Cc1ccco1)Cc1cc2ccc(C)cc2nc1O` [MMV676398], the “Pathogen Box screen signal/noise ratio” value was -0.167.
